Drawing on patent US20120165319A1, “INHIBITORS OF INTERLEUKIN-1 BETA CONVERTING ENZYME” (VERTEX PHARMACEUTICALS INCORPORATED, priority 1995, published 2012), this text covers Ki and IC50 for twelve molecules.

Read-outs that look alike come from different tables or passages of the source. Some results are limits rather than exact numbers.

One experiment deals with T1, ICE (Homo sapiens, UniProt P29466).
T1 sequence (P29466 120-297 limits assumed): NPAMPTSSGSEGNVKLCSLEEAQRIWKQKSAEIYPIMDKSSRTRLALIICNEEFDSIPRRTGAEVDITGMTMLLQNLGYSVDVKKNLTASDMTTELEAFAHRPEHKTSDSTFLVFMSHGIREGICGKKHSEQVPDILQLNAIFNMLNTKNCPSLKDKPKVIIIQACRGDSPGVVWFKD
T1 sequence (P29466 317-404 limits assumed): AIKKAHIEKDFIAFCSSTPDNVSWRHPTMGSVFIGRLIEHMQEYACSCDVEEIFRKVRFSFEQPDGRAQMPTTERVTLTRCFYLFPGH
Put plainly: Enzyme assay with UV-visible substrate (visible ICE assay, Succinyl-Tyr-Val-Ala-Asp-pNitroanilide). It is filed as biochemical. Put shortly: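 ICE preincubated with inhibitor in DMSO for 15 min at room temperature, then Suc-Tyr-Val-Ala-Asp-pNA added. pNA release read at 405-603 nm for 20 min at 37 °C, rate from linear fit in mOD/min. Ki and inhibition mode from fits of rates at varying inhibitor concentrations to standard kinetic equations.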

For another experiment, the system named is IL-1β, human whole blood. Put plainly: Whole blood assay for IL-1β production. It is filed as cell-based. As to conditions: read-out: Whole human blood IC50. The procedure: The whole blood assay is a simple method for measuring the production of IL-1b (or other cytokines) and the activity of potential inhibitors. The complexity of this assay system, with its full complement of lymphoid and inflammatory cell types, spectrum of plasma proteins and red blood cells is an ideal in vitro representation of human in vivo physiologic conditions.
Pyrogen-free syringes (˜30 cc) Pyrogen-free sterile vacuum tubes containing lyophilized Na2EDTA (4.5 mg/10 ml tube) Human whole blood sample (˜30-50 cc) 1.5 ml eppendorf tubes Test compound stock solutions (˜25 mM in DMSO or other solvent) Endotoxin-free sodium chloride solution (0.9%) and HBSS Lipopolysaccharide (Sigma; Cat. # L-3012) stock solution at 1 mg/ml in HBSS
IL-1β ELISA Kit (R & D Systems; Cat # DLB50)
TNFα ELISA Kit (R & D Systems; Cat # DTA50)
Whole Blood Assay Experimental Procedure:
Set incubator or water bath at 30° C. Aliquot 0.25 ml of blood into 1.5 ml eppendorf tubes. Note: be sure to invert the whole blood sample tubes after every two aliquots. Differences in replicates may result if the cells sediment and are not uniformly suspended. Use of a positive displacement pipette will also minimize differences between replicate aliquots.
Prepare drug dilutions in sterile pyrogen-free saline by serial dilution. A dilution series which brackets the apparent Ki for a test compound determined in an ICE inhibition assay is generally used for the primary compound screen.
Add 25 μl test compound dilution or vehicle control and gently mix the sample. Then add 5.0 μl LPS solution (250 ng/ml stocked prepared fresh: 5.0 ng/ml final concentration LPS), and mix again. Incubate the tubes at 30° C. in a water bath for 16-18 hr with occasional mixing. Alternatively, the tubes can be placed in a rotator set at 4 rpm for the same incubation period. This assay should be set up in duplicate or triplicate with the following controls: negative control—no LPS; positive control—no test inhibitor; vehicle control—the highest concentration of DMSO or compound solvent used in the experiment. Additional saline is added to all control tubes to normalize volumes for both control and experimental whole blood test samples
After the incubation period, whole blood samples are centrifuged for 10 minutes at ˜2000 rpm in the microfuge, plasma is transferred to a fresh microfuge tube and centrifuged at 1000×g to pellet residual platelets if necessary. Plasma samples may be stored frozen at −70° C. prior to assay for cytokine levels by ELISA.
We have used R & D Systems (614 McKinley Place N.E. Minneapolis, Minn. 55413) Quantikine kits for measurement of IL-1β and TNF-α. The assays are performed according to the manufacturer's directions.
We have observed IL-1β levels of ˜1-5 ng/ml in positive controls among a range of individuals. A 1:200 dilution of plasma for all samples has been sufficient in our experiments for ELISA results to fall on the linear range of the ELISA standard curves. It may be necessary to optimize standard dilutions if you observe differences in the whole blood assay. Nerad, J. L. et al., J. Leukocyte Biol., 52, pp. 687-692 (1992).

In experiment [1] the test system is IL-1β, human peripheral blood mononuclear cells (PBMC). The experiment in a line: PBMC cell assay: IL-1β assay with human PBMC or enriched adherent mononuclear cells, LPS-stimulated. Format: cell-based. Put shortly: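 Buffy-coat human PBMC at 6×10^6 cells/ml, or adherent monocytes enriched by 1 h adherence (2.5−3.0×10^5 cells/well), are given 5–6 compound dilutions bracketing the ICE Ki (final DMSO 0.1%) plus LPS at a final 5 ng/ml. They are incubated 16–18 hr at 37 °C, 5% CO2, and supernatant mature IL-1β is measured by ELISA, with duplicate cultures and duplicate ELISAs.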

Setting [2] is: Homo sapiens, * = values obtained upon reassay.
[3] abbreviates: Homo sapiens, PBMC, * = values obtained upon reassay.
Setting [4] is: * = values obtained upon reassay.

As for `Cc1cc(C)c(C(=O)C(=O)NN2CCC(=O)N3CCC[C@@H](C(=O)N[C@H](C=O)CC(=O)O)N3C2=O)c(C)c1` [Compound 1117], the affinity on ICE (Table 17), expressed as Ki, was 35 nM. Besides, the IC50 was found to be 1300 nM in the experiment with IL-1β, human whole blood (Homo sapiens, Table 17) and 1700 nM in experiment [1] (Homo sapiens, PBMC, Table 17).
`O=C[C@H](CC(=O)O)NC(=O)CN1C(=O)[C@@H](NC(=O)c2ccc3[nH]cnc3c2)CN(C(=O)CO)c2ccccc21` [Compound 920] came in with a Ki at ICE (Table 17) of 16 nM. Also, the 50% inhibitory concentration (IC50) in the experiment with IL-1β, human whole blood (Homo sapiens, Table 17) is 3000 nM; in experiment [1] (Homo sapiens, PBMC, Table 17), 2100 nM.
Take `COCC(=O)N1C[C@H](NC(=O)c2cc(C)c(O)c(C)c2)C(=O)N(CC(=O)N[C@H](C=O)CC(=O)O)c2ccccc21` [Compound 689b, (3S)-3-[(3S)-2-Oxo-3-(3,5-dimethyl-4-hydroxybenzoyl)amino-5-methoxyacetyl-2,3,4,5-tetrahydro-1H-1,5-benzodiazepine-1-acetylamino]-4-oxo-butyric acid]: the affinity on ICE (Table 17) corresponds to a Ki of 2.2 nM. Also, the IC50 in the experiment with IL-1β, human whole blood (Homo sapiens, Table 17) was determined as 2000 nM; in experiment [1] (Homo sapiens, PBMC, Table 17), 600 nM.
Take `O=C[C@H](CC(=O)O)NC(=O)[C@@H]1CCCN2C(=O)CCN(NC(=O)CCc3ccccc3)C(=O)N12` [Compound 1105]: the Ki on ICE (Table 17) came out at 250 nM. For the same molecule, the IC50 is 3000 nM in the experiment with IL-1β, human whole blood (Homo sapiens, Table 17) and 3500 nM in experiment [1] (Homo sapiens, PBMC, Table 17).
On to `O=C[C@H](CC(=O)O)NC(=O)CN1C(=O)[C@@H](NC(=O)c2ccccc2)CN(C(=O)NCc2ccccc2)c2ccccc21` [Compound 605p, (3S)-3-[(3S)-2-Oxo-3-benzoylamino-5-benzylaminocarbonyl-2,3,4,5-tetrahydro-1H-1,5-benzodiazepin-1-acetylamino]-4-oxo-butyric acid], for which the inhibition constant Ki on ICE (Table 5) came out at 125 nM. For the same molecule, the 50% inhibitory concentration (IC50) in the experiment on IL-1β, human whole blood (setting [2]) is above 20000 nM; in experiment [1] (setting [3]), 3200 nM.
`O=C[C@H](CC(=O)O)NC(=O)[C@@H]1CCCN2C(=O)CC[C@H](NC(=O)OCc3ccccc3)C(=O)N12` [Compound 496] came in with an inhibition constant Ki on ICE (Table 5) of 16 nM. The IC50 in the experiment with IL-1β, human whole blood (setting [2]) was found to be 6000 nM; in experiment [1] (setting [4]), 1600 nM; in experiment [1] (setting [3]), 1550 nM.
The matching figures for `O=C[C@H](CC(=O)O)NC(=O)[C@@H]1CCCN2C(=O)CC[C@H](NC(=O)c3ccc4cc(O)ccc4c3)C(=O)N12` [Compound 425]: 0.8 nM, 650 nM, 700 nM and 650 nM.
With `Cc1cc2c(cc1C(=O)N[C@H]1CCC(=O)N3CCC[C@@H](C(=O)N[C@H](C=O)CC(=O)O)N3C1=O)OCO2` [Compound 473], the Ki on ICE (Table 5) was found to be 1 nM. For the same molecule, the half-maximal inhibitory concentration (IC50) was determined as 450 nM with IL-1β, human whole blood (setting [4]); 400 nM in the experiment on IL-1β, human whole blood (setting [2]); 1000 nM in experiment [1] (setting [3]).
In the case of `O=C[C@H](CC(=O)O)NC(=O)[C@@H]1CCCN2C(=O)CC[C@H](NC(=O)c3ccc(NC(=O)c4ccccc4)cc3)C(=O)N12` [Compound 483], the inhibitory constant (Ki) on ICE (Table 5) is 1.7 nM. Besides, the 50% inhibitory concentration (IC50) stood at 700 nM in the experiment on IL-1β, human whole blood (setting [2]) and 900 nM in experiment [1] (setting [3]).
For the molecule `COc1cccc2oc(C(=O)[C@H](CC(=O)O)NC(=O)[C@@H]3CCCN4C(=O)CC[C@H](NC(=O)CCc5ccccc5)C(=O)N34)nc12` [Compound 135b], the 50% inhibitory concentration (IC50) is 1700 nM in the experiment with IL-1β, human whole blood (setting [2]) and 1600 nM in experiment [1] (setting [3]).
As for `CC(=O)N[C@H]1CCC(=O)N2CCC[C@@H](C(=O)N[C@@H](CC(=O)O)C(=O)COc3cccnc3)N2C1=O` [Compound 283d, [3S(1S,9S)]3-(9-Acetamido-6,10-dioxo-1,2,3,4,7,8,9,10-octahydro-6H-pyridazino[1,2-a][1,2]diazepine-1-carboxamido)-4-oxo-5-(3-pyridyloxy)pentanoic acid], the IC50 in the experiment with IL-1β, human whole blood (Homo sapiens, Table 17) was 10000 nM; in experiment [1] (Homo sapiens, PBMC, Table 17) it was above 8000 nM.
`COc1c(Cl)cc(C(=O)N[C@H]2CN(C(C)=O)c3ccccc3N(CC(=O)N[C@H](C=O)CC(=O)O)C2=O)cc1Cl` [Compound 669, (3S)-3-[(3S)-2-Oxo-3-(3,5-dichloro-4-methoxybenzoyl)amino-5-acetyl-2,3,4,5-tetrahydro-1H-1,5-benzodiazepine-1-acetylamino]-4-oxo-butyric acid]: the Ki at ICE (Table 17) is 14 nM. For the same molecule, in the experiment on IL-1β, human whole blood (Homo sapiens, Table 17), the IC50 came out at 10000 nM.

Usually Ki stands for a dissociation constant, usually derived from enzyme kinetics or from competition with a known ligand. By IC50 is commonly meant the concentration that gives 50% inhibition.
